Read-outs that look alike come from different tables or passages of the source.
Assays:
[1] = test system: PRMT5; experiment: Immunoblot of global SDMA in neonatal rat ventricular cardiomyocytes; type: cell-based; conditions: concentrations up to 50 μM
[2] = test system: HEK293 cells; experiment: PRMT5i-associated cytotoxicity, CellTiter 96 Cell Proliferation Assay; type: cell-based; conditions: dosage escalation beyond 10 μM, 48 h exposure
Experimental: HEK293 cells (ATCC) were cultured in DMEM (PanBiotech) supplemented with 10% FCS (Thermo Fisher) and 1% penicillin-streptomycin (Thermo Fisher) and incubated at standard conditions. Cells between passage 5 and 18 were used for experiments. Neonatal rat ventricular myocytes (NRVMs) were isolated from 24h-to-72h old rats using the Neonatal Heart Dissociation Kit (Miltenyi Biotec) according to manufacturer’s recommendations, cultured in DMEM supplemented with 10% FCS and 1% penicillin-streptomycin and incubated at standard conditions. EPZ015666 and GSK3326595 (MedChemExpress) were dissolved in DMSO and added into the culture medium at indicated dosages. For protein analysis, cells were treated for 96 h including a medium exchange after 48 h. Control cells were treated with DMSO accordingly. Single values in the analysis represent individually treated wells (technical replicates) and experiments were reproduced at least three times using independent cell passages or preparations. […] The treatment was performed in individual wells and absorbance at 570 nm was recorded on an EnSight Plate reader (PerkinElmer).

[3] = Single-dose pharmacokinetics in mice: plasma levels by UPLC-MS/MS; type: in vivo
Experimental: (§1) All animal studies were approved by and conducted in accordance with the German Animal Welfare Act and approved by the Animal Experiment Review Board of the Regierungspräsidium Karlsruhe, Germany. The study refers to the application […]-19. C57BL/6N mice were purchased from Charles River at the age of 12 weeks. Male and female mice were included in an equal ratio. The compound (Medchemexpress) was dissolved in 5% DMSO, 40% PEG300, 5% Tween-80 in isotonic saline solution and administered either via oral gavage or by injection into the tail vein. Control animals received the same solution without compound. […] Tissue samples were homogenized in water using a Bead Ruptor 4 homogenizer (Omni International Inc, USA) for at least 120 s with ceramic beads. After protein precipitation with acetonitrile, plasma and tissue sample extracts were measured using an UPLC-MS/MS (Waters, USA) setup including an Acquity UPLC I-Class® coupled with a Xevo TQ-S triple stage quadrupole mass spectrometer (Waters), which featured a heated ESI source (Z-Spray in the positive MRM mode). Gradient chromatography was conducted using an ACQUITY UPLC BEH C18 column (130 Å, 1.7 μm, 2.1 mm × 50 mm; Waters, USA) consisting of eluent A (95/5 H2O/ACN with 0.1% formic acid) and eluent B (ACN with 0.1% formic acid).

[4] = Single-dose pharmacokinetics in mice: tissue levels (heart, liver, kidney, skeletal muscle) by UPLC-MS/MS; type: in vivo; conditions: for concentration at 1 h: po, 100 mg/kg, oral 100 mg/kg, peak (1 h)
Experimental: as §1

[5] = test system: murine heart; experiment: Short-term application (5 consecutive days) in mice: transthoracic echocardiography, survival; type: in vivo
Experimental: (§2) All animal studies were approved by and conducted in accordance with the German Animal Welfare Act and approved by the Animal Experiment Review Board of the Regierungspräsidium Karlsruhe, Germany. The study refers to the application G210-19. C57BL/6N mice were purchased from Charles River at the age of 12 weeks. Male and female mice were included in an equal ratio.
(§3) The compound (Medchemexpress) was dissolved in 5% DMSO, 40% PEG300, 5% Tween-80 in isotonic saline solution and administered either via oral gavage or by injection into the tail vein. Control animals received the same solution without compound.
(§4) Cardiac performance was determined by transthoracic echocardiography. Measurements on conscious mice were performed using a Vevo® 2100 system with a 55 MHz transducer (Visualsonics). Ejection fraction (EF) was averaged over at least 5 contraction cycles. The experimenter was blinded for genotype and treatment.

[6] = test system: murine heart; experiment: Short-term application in mice: histology of cardiac cross-sections; type: in vivo; conditions: oral once or twice a day, 5 consecutive days
Experimental: The compound (Medchemexpress) was dissolved in 5% DMSO, 40% PEG300, 5% Tween-80 in isotonic saline solution and administered either via oral gavage or by injection into the tail vein. Control animals received the same solution without compound. Heart cross-sections (2-chamber view) were fixed in Roti Histofix (Roth, P087.5) and dehydrated in ethanol. After paraffin embedding, slices of 6µm thickness were cut and used for Hematoxylin/Eosin and Masson’s trichrome staining. Imaging was performed on a Zeiss Axioscan 7. For analysis, 10 snapshots of fixed dimension were taken per animal and the percentage of fibrotic tissue was assessed based on color threshold using ImageJ.

[7] = test system: murine heart; experiment: Long-term application (8 weeks) in mice: transthoracic echocardiography; type: in vivo; conditions: over the course of 8 weeks
Experimental: as §2, §3, §4

[8] = test system: mice; experiment: Long-term application in mice: body weight, mortality, heart and lung weight to tibia length; type: in vivo; conditions: 8 weeks
Experimental: as §2, §3

[9] = test system: hematopoiesis; experiment: Long-term application in mice: blood cell parameters; type: in vivo; conditions: 8 weeks
Experimental: Hematological parameters were analyzed using an automated hematology analyzer ([…] ABC, ABX Diagnostics, France) according to manufacturer's instructions. Whole blood samples were collected into EDTA-coated tubes to prevent coagulation. The following parameters were determined: red blood cell count (RBC), white blood cell count (WBC), hemoglobin concentration (HGB), mean corpuscular volume (MCV), mean corpuscular hemoglobin (MCH), platelet count (PLT), and differential leukocyte counts.

[10] = test system: murine heart; experiment: Long-term application in mice: Masson Trichrome histology (fibrosis); type: in vivo; conditions: 8 weeks
Experimental: Heart cross-sections (2-chamber view) were fixed in Roti Histofix (Roth, P087.5) and dehydrated in ethanol. After paraffin embedding, slices of 6µm thickness were cut and used for Hematoxylin/Eosin and Masson’s trichrome staining. Imaging was performed on a Zeiss Axioscan 7. For analysis, 10 snapshots of fixed dimension were taken per animal and the percentage of fibrotic tissue was assessed based on color threshold using ImageJ.

[11] = test system: murine heart; experiment: PRMT5i combined with O-ring aortic banding (ORAB)/sham surgery: echocardiography; type: in vivo; conditions: mice, 56 days combined with ORAB/sham surgery
Experimental: The compound (Medchemexpress) was dissolved in 5% DMSO, 40% PEG300, 5% Tween-80 in isotonic saline solution and administered either via oral gavage or by injection into the tail vein. Control animals received the same solution without compound. Cardiac performance was determined by transthoracic echocardiography. Measurements on conscious mice were performed using a Vevo® 2100 system with a 55 MHz transducer (Visualsonics). Ejection fraction (EF) was averaged over at least 5 contraction cycles. The experimenter was blinded for genotype and treatment.

[12] = test system: mice; experiment: PRMT5i combined with ORAB/sham surgery: mortality; type: in vivo; conditions: PRMT5i-treated mice undergoing ORAB
Experimental: as §3
(§5) The surgical procedure was essentially performed as previously described^20. In brief, animals were narcotized using Isoflurane. The thorax was opened and a nitrile O-ring (inner diameter 0.020 inch) was closed around the aorta ascendens in order to enhance pressure load of the left ventricle. Perisurgically and for the following days, analgesia was maintained via buprenorphine.

[13] = test system: murine heart; experiment: PRMT5i combined with ORAB/sham surgery: histology (fibrosis); type: in vivo; conditions: mice
Excerpt: The surgical procedure was essentially performed as previously described^20. In brief, animals were narcotized using Isoflurane. The thorax was opened and a nitrile O-ring (inner diameter 0.020 inch) was closed around the aorta ascendens in order to enhance pressure load of the left ventricle. Perisurgically and for the following days, analgesia was maintained via buprenorphine. Heart cross-sections (2-chamber view) were fixed in Roti Histofix (Roth, P087.5) and dehydrated in ethanol. After paraffin embedding, slices of 6µm thickness were cut and used for Hematoxylin/Eosin and Masson’s trichrome staining. Imaging was performed on a Zeiss Axioscan 7. For analysis, 10 snapshots of fixed dimension were taken per animal and the percentage of fibrotic tissue was assessed based on color threshold using ImageJ.

[14] = test system: Myh7 and Nppa expression; experiment: PRMT5i combined with ORAB/sham surgery: quantitative PCR of Myh7 and Nppa in left-ventricular tissue; type: in vivo; conditions: mice
Experimental: as §5
1µg of RNA was reverse transcribed (PrimaDIRECT 2x PCR Master Mix Kit (Steinbrenner)) and cDNA was subjected to quantitative PCR on a LightCycler480 (Roche) using SYBR Green Master Mix (Thermo Fisher).
mmMyh7: • For: 5’ AGCATTCTCCTGCTGTTTCCT 3’ • Rev: 5’ CCAGGCCTGTAGAAGAGCTG 3’
mmNppa: • For: 5’ ATTGACAGGATTGGAGCCCAGAGT 3’ • Rev: 5’ TGACACACCACAAGGGCTTAGGAT 3’
mmGapdh: • For: 5’ GGTGGACCTCATGGCCTACA 3’ • Rev: 5’ CTCTCTTGCTCAGTGTCCTTGCT 3’

[15] = test system: hematopoiesis; experiment: PRMT5i combined with ORAB/sham surgery: blood cell parameters; type: in vivo; conditions: mice, chronic PRMT5i with ORAB/sham
Experimental: The surgical procedure was essentially performed as previously described^20. In brief, animals were narcotized using Isoflurane. The thorax was opened and a nitrile O-ring (inner diameter 0.020 inch) was closed around the aorta ascendens in order to enhance pressure load of the left ventricle. Perisurgically and for the following days, analgesia was maintained via buprenorphine. Hematological parameters were analyzed using an automated hematology analyzer ([…] ABC, ABX Diagnostics, France) according to manufacturer's instructions. Whole blood samples were collected into EDTA-coated tubes to prevent coagulation. The following parameters were determined: red blood cell count (RBC), white blood cell count (WBC), hemoglobin concentration (HGB), mean corpuscular volume (MCV), mean corpuscular hemoglobin (MCH), platelet count (PLT), and differential leukocyte counts.

[16] = test system: patients; conditions: ref [12], [18]; cited from earlier work

For `O=C(NC[C@H](O)CN1CCc2ccccc2C1)c1cc(NC2COC2)ncn1` [EPZ015666], the “global SDMA” value [1] was “did not detect a significant reduction of global SDMA”.
With `CC(=O)N1CCC(Nc2cc(C(=O)NC[C@H](O)CN3CCc4ccccc4C3)ncn2)CC1` [GSK3326595] the cytotoxicity [2] was “significantly less cytotoxicity as compared to EPZ015666”, the half-life ([3]; both sexes, C57BL/6N, mouse, plasma) was 150 min and the bioavailability ([3]; both sexes, C57BL/6N, mouse, plasma, po) was 5.7%. For the same compound, the “decline of plasma concentration on average” value ([3]; over a course of 12 h) was > 90%, the “time of plasma peak concentration post application” value ([3]; single dose oral gavage or intravenous) was 1 h and the “heart targeted by % dosage on average” value ([4]; as worded) was 19.0%. For the same compound, the “muscle tissue targeted by % dosage on average” value ([4]; as worded) was 26.0%, the “heart targeted by % dosage on average (versus liver)” value ([4]; as worded in b7, first of 'respectively') was 26.0% and the “heart targeted by % dosage on average (versus kidney)” value ([4]; as worded in b7, second of 'respectively') was 19.0%. For the same compound, the concentration at 1 h ([4]; both sexes, C57BL/6N, mouse, heart, read-out: absolute inhibitor concentration in heart) was 82700 ng/g, the Tmax ([4]; both sexes, C57BL/6N, mouse, liver, kidney, heart, skeletal muscle, other: oral (gavage) and intravenous (tail vein), both arms, single dose, read-out: time of maximum levels in liver, kidney, heart and skeletal muscle) was 1 h and the concentration at 1 h ([4]; both sexes, C57BL/6N, mouse, skeletal muscle, read-out: absolute inhibitor concentration in skeletal muscle) was 172000 ng/g. The “ejection fraction” value ([5]; oral once or twice a day, 5 consecutive days) was “did not detect changes in ejection fraction”, the “death during the experiment” value ([5]; short-term application, 10 mg/kg) was “one animal (10 mg/kg) that died during the course of the experiment” and the “tissue morphology / fibrotic remodeling” value [6] was “no immediate detrimental effects or fibrotic remodeling”. For the same compound, the systolic cardiac function [7] was “preserved”, the “heart weight-to-tibia length and lung weight-to-tibia length” value [8] was “did not reveal PRMT5i-induced alterations” and the “tolerability (body weight, mortality)” value [8] was “well tolerated as determined by stable body weight without treatment-associated mortality”. The “hematology: anemia, lymphopenia” value [9] was “significant anemia and lymphopenia”, the platelets counts [9] was “unaltered” and the “myocardial fibrosis (Masson Trichrome staining)” value [10] was “remained stable”. For the same compound, the longitudinal echocardiographic analysis [11] was “no statistical significance was found for any of the indicated time points in any group comparison”, the mortality [12] was “delayed mortality starting 2 weeks post-surgery” and the “fibrotic remodeling (histology)” value [13] was “no significant fibrotic remodeling”. The “expression of cardiac stress markers Myh7 and Nppa” value [14] was “stable expression of classical cardiac stress markers such as Myh7 and Nppa”, the “hematology: anemia, leucopenia” value [15] was “significant normocytic normochromic anemia and leucopenia” and the platelets [15] was “not affected”. For the same compound, the “adverse cardiovascular events in clinical studies” value [16] was “manifested adverse cardiovascular events were not described”.
